The results in this text go back to publication PMC12630348, “Evidence of an activity-enhancing conformational shift in Arabidopsis thaliana plant cysteine oxidase 4 induced by binding of substrate or substrate-mimics” (The Journal of Biological Chemistry, 2025).

Assay [1] concerns the target T1, recombinant AtPCO4 (Arabidopsis thaliana, UniProt Q9SJI9).
T1 construct: His tag followed by thrombin site (N); made in house; host or cells: E. coli BL21(DE3)
Nature of the assay: Substrate only assay: anaerobic preincubation of AtPCO4 with RAP2.12_2—17. Type of assay: biochemical. The procedure:
The assay plate was immediately removed to aerobic conditions, initiating the reaction. Samples were taken at 0 s, 2 min, 5 min, 10 min, 15 min, and 20 min and quenched in 5% (v/v) formic acid.
(§1) Spectra were assessed manually in MassHunter Qualitative Analysis B.07.00 software (Agilent) to ensure the correct ion was chosen for peptide oxidation quantification. RapidFire Integrator.exe was used to integrate areas of product and substrate ions (ii) an Acquity Ultra-high performance liquid chromatography system (Waters) coupled to a Xevo G2-XS Q-ToF mass spectrometer (Waters) operated in positive electrospray mode. Instrument parameters, data acquisition and data processing were controlled by MassLynx V4.1 software (Waters). Source parameters were adjusted to maximize sensitivity and minimize fragmentation. […] TOF mass scan range 50.00—2500.00 Da. Spectra were assessed manually in MassLynx V4.1 software (Waters) to ensure the correct ion was chosen for peptide oxidation quantification. MassLynx V4.1 software (Waters) was used to integrate areas of product and substrate ions.
(§2) Integration values obtained by MS were subsequently used to quantify reaction turnover (μmol of substrate oxidized per mg of enzyme), and graphs were generated using Prism 10 (GraphPad).

The target of assay [2] is T1, recombinant AtPCO4. In words: AtPCO4 activity toward RAP2.12_2—17 after 6 min aerobic preincubation of enzyme with peptidomimetic or control peptide (time course, LC-MS). The class given is biochemical. To be noted: 200 μM peptide, 6 min aerobic preincubation with 0.1 μM AtPCO4; 20 μM RAP2.12_2—17; 25 °C. The procedure: (§3) Recombinant AtPCO4 was expressed using BL21(DE3) Escherichia coli cells containing the plasmid pET-28a(+)-His-THROMBIN-AtPCO4, and purified using Ni^2+-affinity and size exclusion chromatography as described in ([59]). WT AtPCO4 along with AtPCO4 Cys190Ala and AtPCO4 ADO loop variants were purified using this method. WT AtPCO4 reactivity toward the peptidomimetics was assessed by incubating (0.1 μM) recombinant enzyme with (200 μM) peptidomimetic in assay buffer (assay buffer: 50 mM Bis-tris propane, 40 mM NaCl, pH 8) supplemented with 20 μM FeSO4, 1 mM ascorbate, 5 mM TCEP, at 25 °C for 20 min prior to quenching in 5% (v/v) formic acid.
(§4) Reaction samples taken at 0 s, 30 s, 60 s, 90 s, 2 min, 5 min, 10 min, 15 min, and 20 min intervals were quenched in 5% (v/v) formic acid.
as §1, §2

Assay [3] has as its target T1, recombinant AtPCO4. Nature of the assay: AtPCO4 activity toward RAP2.12_2—17 with peptidomimetic, without peptidomimetic-AtPCO4 preincubation. The class given is biochemical. To be noted: 200 μM peptidomimetic, 0.1 μM AtPCO4, 20 μM RAP2.12_2—17, 25 °C. The procedure:
To test the significance of the peptidomimetic-AtPCO4 preincubation step, the method above was modified so that either 0 or 400 μM peptidomimetic was instead in mixture (ii) (Fig. 9B). Mixtures were again incubated separately at 25 °C for 6 min before being combined in equal volumes, initiating the reaction. Samples were taken and quenched in 5% (v/v) formic acid.
as §1, §2

The test system of assay [4] is AtPCO4 Cys190Ala variant. In words: Cys190Ala AtPCO4 variant activity toward RAP2.12_2—17 after preincubation with peptidomimetic. Type of assay: biochemical, Arabidopsis thaliana. The procedure: as §3, §4
Figure S15 Investigating the potential formation of a Cys190-Tyr192 activity-enhancing crosslink. […] Standard conditions: 5 mM TCEP, 20 μM FeSO4, 1 mM ascorbate, 25 °C. […] Error bars display S.D (n=3).

Assay [5] has as its target T1, recombinant AtPCO4. In words: AtPCO4 activity toward RAP2.12_2—15 or RAP2.12_2—17 in the presence and absence of peptidomimetic 10 (Fig. S16). Conditions: 14-mer RAP2.12 substrate, slope of turnover against time (minutes). The class given is biochemical. The procedure: as §4
Standard conditions: 5 mM TCEP, 20 μM FeSO4, 1 mM ascorbate, 25 °C. Turnover calculated as μmol RAP2.122—15/17 oxidised per […] of AtPCO4 (data shown is not normalised). Error bars display S.D (n=3).

As for “RAP2.12_2—17: 16-mer N-terminal L-Cys substrate peptide of AtPCO4 representing AtRAP2.12, purchased from GL Biochem (CGGAIISDFIPPPRSR; UniProt Q9SSA8 2-17, looked up, fragment)”, the “x (slope between 5-15 min), Preincubation rxn” value in assay [1] (20 μM RAP2.12_2—17, 6 min anaerobic preincubation with 0.1 μM WT AtPCO4) amounted to 0.099; in assay [1] (50 μM RAP2.12_2—17, 6 min anaerobic preincubation with 0.1 μM WT AtPCO4) it was 0.275; in assay [1] (100 μM RAP2.12_2—17, 6 min anaerobic preincubation with 0.1 μM WT AtPCO4), 0.34; in assay [1] (200 μM RAP2.12_2—17, 6 min anaerobic preincubation with 0.1 μM WT AtPCO4) it was 0.303. The “x (slope between 5-15 min), No Preincubation” value in assay [1] (50 μM RAP2.12_2—17, no preincubation with AtPCO4 (anaerobic preparation)) is on record as 0.175; in assay [1] (100 μM RAP2.12_2—17, no preincubation with AtPCO4 (anaerobic preparation)) it was 0.209; in assay [1] (200 μM RAP2.12_2—17, no preincubation with AtPCO4 (anaerobic preparation)), 0.15. Take “XGGAIISDFIPPPR [Peptidomimetic 1, 14-mer X… mimic of RAP2.12 with N-terminal X = D-Cys]”: in assay [2], the “x (slope between 0-5 min), Peptidomimetic rxn / CP rxn” value is 0.28.

As to “XGGAIISDFIPPPR [Peptidomimetic 2, 14-mer X… with N-terminal X = homocysteine]”, the “x (slope between 0-5 min), Peptidomimetic rxn, no preincubation” value (“x (slope between 0-5 min) … no preincubation” for short) in assay [3] was found to be 0.05853. Same read-out and setting: next, “XGGAIISDFIPPPR [Peptidomimetic 3, 14-mer X… with N-terminal X = penicillamine]”: 0.01063. For the substance “XGGAIISDFIPPPR [Peptidomimetic 4, 14-mer X… with N-terminal X = S-methyl cysteine (linear thioether)]”, the “x (slope between 0-5 min), Peptidomimetic rxn / CP rxn” value in assay [2] is 0.31. On to “XGGAIISDFIPPPR [Peptidomimetic 6, 14-mer X… with N-terminal X = TM3C (thiomorpholine, cyclized thioether)]”, for which, in assay [2], the “x (slope between 0-5 min), Peptidomimetic rxn / CP rxn” value was 0.18.

Consider “XGGAIISDFIPPPR [Peptidomimetic 7, 14-mer X… with N-terminal X = 3MePro, Cys-analogue devoid of an amino group]”, for which the “x (slope between 0-5 min), Peptidomimetic rxn / CP rxn” value in assay [2] came to 0.78. Also, in assay [3], the “x (slope between 0-5 min) … no preincubation” value came to 0.03853. In addition, the “increase in the initial rate of RAP2.12_2—17 oxidation between 0—5 min, Cys190Ala AtPCO4 variant” value in assay [4] (200 μM peptidomimetic, 6 min preincubation with 0.1 μM C190A AtPCO4, 20 μM RAP2.12_2—17, relative to control without peptidomimetic (=1), 25 °C, n = 3) came out at 5.21 fold. Moreover, the “Initial rate: x (slope between 0-5 min), Peptidomimetic rxn” value in assay [4] (C190A AtPCO4, slope of turnover time course between 0-5 min) is 0.4559. Consider “XGGAIISDFIPPPR [Peptidomimetic 8, 14-mer X… with N-terminal X = Nα-Me-Cys]”, for which the “x (slope between 0-5 min) … no preincubation” value in assay [3] was 0.1162. Consider “XGGAIISDFIPPPR [Peptidomimetic 10, 14-mer X… with N-terminal X = Ser]”, for which, in assay [5], the “x (slope between 0-5 min), Peptidomimetic rxn” value is on record as 0.6491. The “x (slope between 0-5 min) … no preincubation” value in assay [3] was 0.07282. Regarding “XGGAIISDFIPPPR [Peptidomimetic 11, 14-mer X… with N-terminal X = hSer]”, the “x (slope between 0-5 min), Peptidomimetic rxn / CP rxn” value in assay [2] was determined as 0.29.

Turning to “XGGAIISDFIPPPR [Peptidomimetic 12, 14-mer X… with N-terminal X = AlG]”, the “x (slope between 0-5 min) … no preincubation” value in assay [3] stood at 0.03158. As to “XGGAIISDFIPPPR [Peptidomimetic 13, 14-mer X… with N-terminal X = Pra]”, the “x (slope between 0-5 min), Peptidomimetic rxn / CP rxn” value in assay [2] stood at 0.34.
